Consider 17 compounds from patent publication US20240140941A1, “DERIVATIVE OF 2,5-DIKETOPIPERAZINE COMPOUND, AND PREPARATION METHOD THEREFOR, PHARMACEUTICAL COMPOSITION THEREOF AND USE THEREOF” (DALIAN WZ PROBIOTICS AD HEALTH CO., LTD, priority 2020, published 2024).

As a reminder, the IC50 is the concentration at which inhibition is half-maximal. What is called melting point is the temperature of the solid-liquid transition.

Data set [1] has as its system HT-29. As to the kind of experiment: Inhibition test on cell proliferation (MTT), HT-29. The following applies: 72 hours of drug treatment. Type of data set: cell-based, human. On the procedure: (§1) Tumor cells (NCI-H460, BxPC-3, HT-29, HCC-LM3) in the logarithmic growth phase were digested, centrifuged, and the supernatants were removed. Cells were resuspended by adding fresh culture medium, and counted using a cell counting plate. 100 μL of culture medium (containing cells) was added to a 96-well plate according to the standard of 2000 to 6000 cells per well and incubated in an incubator (37° C., 5% CO2) for 24 hours. After the cells were completely adhered to the wall, the test sample and Plinabulin were diluted to different concentrations using fresh culture medium, and 4 wells were set for each concentration. After 72 hours of drug treatment, the culture medium was removed, and 20 μL of MTT at a concentration of 5 mg/mL was added to each well. After 3-4 hours in the incubator, the MTT was discarded, and 100 μL of DMSO was added to each well, and placed in a 96-well plate shaker to completely dissolve the purple formazan. Subsequently, the absorbance (OD value) was detected at a wavelength of 490 nm using a microplate reader. The experiment also required setting up zero-setting wells (blank culture medium, MTT, DMSO). Cell inhibition rate=1−(OD value of drug-dosed group−OD value of zero-setting group)/(OD value of blank group−OD value of zero-setting group)×100%.

Data set [2] relates to BxPC-3. The experiment in a line: Inhibition test on cell proliferation (MTT), BxPC-3. The conditions noted are these: read-out: IC50 (nM) BxPC-3. Type of data set: cell-based, human. The essentials:
(§2)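 Cells plated at 2000-6000 per well, allowed to adhere for 24 h, then exposed to serially diluted compound for 72 h at 37 °C, 5% CO2. Viability read by MTT reduction, with formazan dissolved in DMSO and absorbance taken at 490 nm. Inhibition rate calculated relative to untreated and zero-setting wells.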

The test system of data set [3] is HCC-LM3. The experiment in a line: Inhibition test on cell proliferation (MTT), HCC-LM3. It counts as cell-based, human. The following applies: read-out: IC50 (nM) HCC-LM3. How it is done: as §1
The subject of data set [4] is NCI-H460. As to the kind of experiment: Inhibition test on cell proliferation (MTT), NCI-H460. Type of data set: cell-based, human. A digest of the protocol: as §2
Setting [5] is: Homo sapiens, BXPC-3, 72 h, 72 hours of drug treatment, MTT.
The mark [6] stands for this setting: Homo sapiens, HCCLM3, 72 h, 72 hours of drug treatment, MTT.
The mark [7] stands for this setting: Homo sapiens, NCI-H460, 72 h, 72 hours of drug treatment, MTT, read-out: IC50 (nM) NCI-H460.
Where [8] appears, read: 72 hours of drug treatment, MTT, hydrochloride.
Setting [9] is: 72 hours of drug treatment, MTT, mesylate.

Counter-ions that a name gives are not always drawn. Like-named read-outs stand apart in the source and are kept apart here.

`C=CC(=O)N1CCN(CCCn2cnc(/C=c3\[nH]c(=O)/c(=C/c4cccc(F)c4)[nH]c3=O)c2C(C)C)CC1` [PLN-2-61, (3Z,6Z)-3-(3-Fluorophenyl)methylene-6-(5-isopropyl-1-(3-(4-(acryloyl)piperazinyl)propylimidazol-4-yl)methylene)piperazine-2,5-dione] yielded a melting point of 182 to 184 °C. In addition, in data set [1] (Homo sapiens, HT-29, 72 h), the IC50 was determined as 14.1 ± 0.22 nM. The IC50 in data set [2] (setting [5]) was 8 ± 1.15 nM. For the same compound, the IC50 in data set [3] (setting [6]) amounted to 31.2 ± 6.92 nM. Also, the IC50 in data set [4] (setting [7]) came to 19.6 ± 2.15 nM.

In turn, `CC(C)c1c(/C=c2\[nH]c(=O)/c(=C/c3cccc(Oc4ccc(F)cc4)c3)[nH]c2=O)ncn1CCCN1CCNCC1` [PLN-2-18] displayed a melting point of 176 to 178 °C. For the same compound, the IC50 in data set [4] (setting [7]) amounted to 99.72 ± 0.82 nM.

`Cc1ccccc1/C=c1\[nH]c(=O)/c(=C/c2ncn(CCCN3CCOCC3)c2C(C)C)[nH]c1=O` [PLN-2-49, (3Z,6Z)-3-(2-Methylphenyl)methylene-6-((5-isopropyl-1-(3-morpholinyl)propylimidazol-4-yl)methylene)piperazine-2,5-dione] registered a melting point of 169 to 171 °C. In data set [1] (Homo sapiens, HT-29, 72 h), this compound came in with an IC50 of 35.2 ± 2.15 nM. The IC50 in data set [2] (setting [5]) was 27.3 ± 2.75 nM. Further, the IC50 in data set [3] (setting [6]) stood at 18.4 ± 1.42 nM. The IC50 in data set [4] (setting [7]) came to 33.7 ± 0.7 nM.

`CC(C)c1c(/C=c2\[nH]c(=O)/c(=C/c3cc(F)ccc3F)[nH]c2=O)ncn1CCCN1CCOCC1` (as salt: hydrochloride) [PLN-2-7-1, (3Z,6Z)-3-(2,5-Difluorophenyl)methylene-6-((5-isopropyl-1-(3-morpholinyl)propylimidazol-4-yl)methylene)piperazine-2,5-dione, hydrochloride] gave a melting point of 174 to 176 °C.

`Cc1cccc(/C=c2\[nH]c(=O)/c(=C/c3ncn(CCCN4CCOCC4)c3C(C)C)[nH]c2=O)c1C` [PLN-2-50, (3Z,6Z)-3-(2,3-Dimethylphenyl)methylene-6-((5-isopropyl-1-(3-morpholinyl)propylimidazol-4-yl)methylene)piperazine-2,5-dione] had a melting point of 164 to 166 °C. This compound returned an IC50 in data set [1] (Homo sapiens, HT-29, 72 h) of 37.1 ± 3.15 nM. Also, the IC50 in data set [2] (setting [5]) was 23 ± 1.56 nM. The IC50 in data set [3] (setting [6]) worked out at 20.8 ± 2.56 nM. The IC50 in data set [4] (setting [7]) was determined as 41.3 ± 1.25 nM.

As to `CC(C)c1c(/C=c2\[nH]c(=O)/c(=C/c3cccc(Oc4ccc(F)cc4)c3)[nH]c2=O)ncn1CCCN1CCOCC1` (as salt: hydrochloride) [PLN-2-2-1], the melting point is 173 to 175 °C.

As for `Cc1cccc(/C=c2\[nH]c(=O)/c(=C/c3ncn(CCCN4CCOCC4)c3C(C)C)[nH]c2=O)c1` [PLN-2-51, (3Z,6Z)-3-(3-Methylphenyl)methylene-6-((5-isopropyl-1-(3-morpholinyl)propylimidazol-4-yl)methylene)piperazine-2,5-dione], the melting point is 178 to 180 °C. In data set [1] (Homo sapiens, HT-29, 72 h), the half-maximal inhibitory concentration (IC50) was 9.03 ± 0.29 nM. In data set [2] (setting [5]), the IC50 turned out to be 13.9 ± 3.21 nM. Besides, the IC50 in data set [3] (setting [6]) stood at 7.49 ± 0.12 nM. Moreover, the IC50 in data set [4] (setting [7]) worked out at 21.7 ± 3.04 nM.

The compound `CC(C)c1c(/C=c2\[nH]c(=O)/c(=C/c3cccc4ccccc34)[nH]c2=O)ncn1CCCN1CCOCC1` [PLN-2-54, (3Z,6Z)-3-(1-Naphthalenyl)methylene-6-((5-isopropyl-1-(3-morpholinyl)propylimidazol-4-yl)methylene)piperazine-2,5-dione] registered a melting point of 248 to 250 °C. The compound further returned an IC50 in data set [1] (Homo sapiens, HT-29, 72 h) of 6.55 ± 0.33 nM. For the same compound, the IC50 in data set [2] (setting [5]) is 5.74 ± 2.19 nM. The IC50 in data set [3] (setting [6]) was determined as 3.48 ± 2.6 nM. For the same compound, in data set [4] (setting [7]), the IC50 came out at 8.28 ± 0.91 nM.

`CC(C)c1c(/C=c2\[nH]c(=O)/c(=C/c3cccc(F)c3)[nH]c2=O)ncn1CCCN1CCO[C@H](C)C1` (as salt: hydrochloride) [PLN-2-56-1, (3Z,6Z)-3-(3-Fluorophenyl)methylene-6-(5-isopropyl-1-(3-(R)-(2-methylmorpholinyl)propylimidazol-4-yl)methylene)piperazine-2,5-dione, hydrochloride] registered a melting point of 232.8 to 234.8 °C.

Regarding `O=c1[nH]/c(=C\c2ncn(CCCN3CCOCC3)c2C2CC2)c(=O)[nH]/c1=C\c1ccccc1` [PLN-2-6, (3Z,6Z)-3-benzylidene-6-((5-cyclopropyl-1-(−3-morpholinyl)propylimidazol-4-yl)methylene)piperazine-2,5-dione], the IC50 in data set [1] (Homo sapiens, HT-29, 72 h) came to 25.3 ± 3.54 nM; in data set [2] (setting [5]) it was 27.7 ± 0.94 nM; in data set [3] (setting [6]) it was 16.6 ± 0.66 nM; in data set [4] (setting [7]), 33.5 ± 0.46 nM.

`CC(C)c1c(/C=c2\[nH]c(=O)/c(=C/c3ccccc3)[nH]c2=O)ncn1CCCN1CCOCC1` (as salt: hydrochloride) [PLN-2-5-1, (3Z,6Z)-3-Benzylidene-6-((5-isopropyl-1-(3-morpholinyl)propylimidazol-4-yl)methylene)piperazine-2,5-dione, hydrochloride] returned a melting point of 220 to 222 °C.

`CC(C)c1c(/C=c2\[nH]c(=O)/c(=C/c3cccc(F)c3)[nH]c2=O)ncn1CCCN1CCOC(COCc2ccccc2)C1` (centres unmarked) [PLN-2-60, (3Z,6Z)-3-(3-Fluorophenyl)methylene-6-(5-isopropyl-1-(3-(2-(benzyloxymethyl)morpholinyl)propylimidazol-4-yl)methylene)piperazine-2,5-dione] displayed a melting point of 157 to 159 °C. For the same compound, in data set [2] (Homo sapiens, BXPC-3, 72 h), the IC50 is 27.2 ± 1.42 nM. For the same compound, in data set [3] (Homo sapiens, HCCLM3, 72 h), the IC50 was 49.2 ± 1.3 nM. Further, the IC50 in data set [4] (Homo sapiens, NCI-H460, 72 h, read-out: IC50 (nM) NCI-H460, 72 hours of drug treatment, MTT) is 59.67 ± 0.3 nM.

The compound `CCOCC1CN(CCCn2cnc(/C=c3\[nH]c(=O)/c(=C/c4cccc(F)c4)[nH]c3=O)c2C(C)C)CCO1` (centres unmarked) [PLN-2-58, (3Z,6Z)-3-(3-Fluorophenyl)methylene-6-(5-isopropyl-1-(3-(2-(ethoxymethyl)morpholinyl)propylimidazol-4-yl)methylene)piperazine-2,5-dione] displayed a melting point of 202 to 204 °C. Moreover, in data set [2] (setting [5]), the IC50 stood at 8.1 ± 1.44 nM. For the same compound, the IC50 in data set [3] (setting [6]) is 16.7 ± 0.98 nM. The IC50 in data set [4] (setting [7]) is 11.8 ± 1.82 nM.

For `CC(C)c1c(/C=c2\[nH]c(=O)/c(=C/c3cccc(F)c3)[nH]c2=O)ncn1CCCN1CCO[C@@H](C)C1` [PLN-2-57-1, (3Z,6Z)-3-(3-Fluorophenyl)methylene-6-(5-isopropyl-1-(3-S)—(−2-methylmorpholinyl)propylimidazol-4-yl)methylene)piperazine-2,5-dione, hydrochloride], the IC50 in data set [1] (hydrochloride) was 10.6 ± 3.68 nM; in data set [2] (setting [8]) it was 14.1 ± 1.23 nM; in data set [3] (setting [8]), 12.9 ± 1.61 nM; in data set [4] (72 hours of drug treatment, MTT, hydrochloride, read-out: IC50 (nM) NCI-H460), 17.5 ± 0.71 nM.

As for `CCCOCC1CN(CCCn2cnc(/C=c3\[nH]c(=O)/c(=C/c4cccc(F)c4)[nH]c3=O)c2C(C)C)CCO1` (centres unmarked) [PLN-2-59, (3Z,6Z)-3-(3-fluorophenyl)methylene-6-(5-isopropyl-1-(3-(2-(propoxymethyl)morpholinyl)propylimidazol-4-yl)methylene)piperazine-2,5-dione], the melting point lay in the range of 178 to 180 °C. In data set [2] (setting [5]), the IC50 worked out at 15.5 ± 0.74 nM. Moreover, in data set [3] (setting [6]), the IC50 was found to be 23.3 ± 2.49 nM. For the same compound, the IC50 in data set [4] (setting [7]) was 27.4 ± 0.52 nM.

For `CC(C)c1c(/C=c2\[nH]c(=O)/c(=C/c3cccc(F)c3)[nH]c2=O)ncn1CCCN1CCO[C@@H](C)C1` (as salt: hydrochloride) [PLN-2-57-1, (3Z,6Z)-3-(3-Fluorophenyl)methylene-6-(5-isopropyl-1-(3-S)—(−2-methylmorpholinyl)propylimidazol-4-yl)methylene)piperazine-2,5-dione, hydrochloride], the melting point was 232.2 to 234.2 °C.

For `O=c1[nH]/c(=C\c2ncn(CCCN3CCOCC3)c2C2CC2)c(=O)[nH]/c1=C\c1cccc(F)c1` [PLN-2-10-2, (3Z,6Z)-3-(3-Fluorophenyl)methylene-6-((5-cyclopropyl-1-(3-morpholinyl)propylimidazol-4-yl)methylene)piperazine-2,5-dione, mesylate], the IC50 in data set [1] (mesylate) worked out at 13.2 ± 2.15 nM; in data set [2] (setting [9]), 12.6 ± 0.96 nM; in data set [3] (setting [9]), 13.3 ± 4.02 nM; in data set [4] (72 hours of drug treatment, MTT, mesylate, read-out: IC50 (nM) NCI-H460) it was 11.2 ± 2.04 nM.
